Experimental findings from PubChem BioAssay (NCI) are described below.

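Assay format: 96-well plates, 48-hour exposure. TGI denotes the concentration required for complete inhibition of growth.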

Among the test systems are KM12 colon; SF-268 CNS; ACHN renal; SK-MEL-28 melanoma; A498 renal; T-47D breast; NCI/ADR-RES ovarian; OVCAR-5 ovarian; NCI-H226 lung; 786-0 renal; HT29 colon; MCF7 breast; NCI-H23 lung; OVCAR-4 ovarian; MALME-3M melanoma; RPMI-8226 leukemia; SW-620 colon; HCC-2998 colon.
Common to all, as to assay: NCI tumour cell line growth inhibition, 48 h

Take `CC(C)(C)OC(=O)CCC1NC(=O)[C@@H]2Cc3c([nH]c4ccccc34)C(c3ccccc3)N2C1=O` (stereo not given in full): the TGI in the assay with KM12 colon was 65.4 µM; with SF-268 CNS, 75.8 µM; in the assay on ACHN renal, 94.5 µM; with SK-MEL-28 melanoma, over 100 µM; in the assay on A498 renal it was over 100 µM; in the assay on T-47D breast it was over 100 µM. The TGI is 87.6 µM with NCI/ADR-RES ovarian; 70.2 µM in the assay with OVCAR-5 ovarian; 86.8 µM in the assay with NCI-H226 lung; over 100 µM with 786-0 renal; 56 µM in the assay with HT29 colon; over 100 µM in the assay with MCF7 breast. Also, the TGI in the assay on NCI-H23 lung is 79.6 µM; in the assay on OVCAR-4 ovarian, over 100 µM; with MALME-3M melanoma, 43.4 µM; with RPMI-8226 leukemia it was over 100 µM; in the assay with SW-620 colon, over 100 µM.
Consider `CC(=O)c1cc2sc3ccccc3c2[nH]1`, for which the TGI in the assay on KM12 colon, in the assay with SF-268 CNS, in the assay on ACHN renal, in the assay with SK-MEL-28 melanoma, in the assay on A498 renal and with T-47D breast was over 100 µM throughout. The TGI in the assay with NCI/ADR-RES ovarian, with OVCAR-5 ovarian, with HCC-2998 colon, with 786-0 renal, in the assay with HT29 colon and in the assay with MCF7 breast was over 100 µM in each case. Further, the TGI in the assay on NCI-H23 lung, in the assay with OVCAR-4 ovarian, with MALME-3M melanoma, in the assay with RPMI-8226 leukemia and with SW-620 colon was over 100 µM in each case.
Turning to `COc1ccc(-c2c(C(C)=O)c(C)n(C3OC(COC(C)=O)C(OC(C)=O)C(OC(C)=O)C3OC(C)=O)c(=S)c2C#N)cc1` (stereo not given), the TGI with KM12 colon, in the assay on SF-268 CNS, in the assay with ACHN renal, in the assay with SK-MEL-28 melanoma, in the assay with A498 renal and with T-47D breast was over 100 µM throughout. The TGI in the assay with NCI/ADR-RES ovarian, in the assay on OVCAR-5 ovarian, with NCI-H226 lung, in the assay with HCC-2998 colon, with 786-0 renal and with HT29 colon was over 100 µM each time. Also, the TGI in the assay with MCF7 breast, in the assay with NCI-H23 lung, in the assay on OVCAR-4 ovarian, in the assay with MALME-3M melanoma and in the assay with SW-620 colon was over 100 µM throughout.
With `O=c1cc(CN2CCCCC2)[nH]c2c1ccc1nc(CN3CCCCC3)cc(=O)n12`, the TGI in the assay on KM12 colon, with SF-268 CNS, in the assay on ACHN renal, in the assay on SK-MEL-28 melanoma, with A498 renal and in the assay with T-47D breast was over 100 µM each time. Moreover, the TGI in the assay on NCI/ADR-RES ovarian, in the assay on OVCAR-5 ovarian, in the assay with NCI-H226 lung, in the assay on HCC-2998 colon, in the assay on 786-0 renal and with HT29 colon was over 100 µM throughout. For the same compound, the TGI with MCF7 breast, in the assay with NCI-H23 lung, in the assay on OVCAR-4 ovarian, with RPMI-8226 leukemia and in the assay with SW-620 colon was over 100 µM throughout.
`C=CC(C)(C)c1c(OC)oc2ccc(OC)c(C)c2c1=O`: the TGI in the assay with KM12 colon, in the assay on SF-268 CNS, in the assay with ACHN renal, in the assay with SK-MEL-28 melanoma, with A498 renal and in the assay on T-47D breast was over 100 µM in each case. Moreover, the TGI in the assay with NCI/ADR-RES ovarian, with OVCAR-5 ovarian, in the assay with NCI-H226 lung, in the assay with HCC-2998 colon, in the assay on 786-0 renal and in the assay with HT29 colon was over 100 µM in each case. The TGI in the assay with MCF7 breast, with NCI-H23 lung, in the assay with MALME-3M melanoma, in the assay with RPMI-8226 leukemia and in the assay with SW-620 colon was over 100 µM in each case.
For `Nc1ccc(-c2nnc(-c3c(Cl)c(Cl)c(Cl)c(Cl)c3-c3nc4ccc(C(=O)c5ccccc5)cc4[nH]3)o2)cc1`, the TGI in the assay with KM12 colon was over 100 µM; with SF-268 CNS it was over 100 µM; in the assay on ACHN renal, over 100 µM; with SK-MEL-28 melanoma it was over 100 µM; in the assay on A498 renal it was 63.2 µM; with T-47D breast it was 78.5 µM. Also, the TGI in the assay with NCI/ADR-RES ovarian is 41 µM; in the assay on OVCAR-5 ovarian, 89 µM; with NCI-H226 lung, 41.2 µM; in the assay with 786-0 renal it was 36.1 µM; with HT29 colon it was 40.8 µM; with MCF7 breast it was 76.2 µM. Moreover, the TGI with NCI-H23 lung was over 100 µM; with OVCAR-4 ovarian, over 100 µM; in the assay on MALME-3M melanoma, over 100 µM; in the assay with RPMI-8226 leukemia, 31.8 µM; in the assay with SW-620 colon, over 100 µM.
In the case of `O=C(O)[C@@]1(Cc2ccc(O)cc2)C[C@@H]2Cc3ccccc3N2N1`, the TGI with KM12 colon, with SF-268 CNS, in the assay with ACHN renal, in the assay on SK-MEL-28 melanoma, with A498 renal and in the assay with T-47D breast was over 100 µM each time. Besides, the TGI in the assay on NCI/ADR-RES ovarian, in the assay with OVCAR-5 ovarian, with NCI-H226 lung, with 786-0 renal, in the assay with HT29 colon and in the assay with MCF7 breast was over 100 µM each time. Further, the TGI in the assay on NCI-H23 lung, with OVCAR-4 ovarian, with MALME-3M melanoma, in the assay on RPMI-8226 leukemia and in the assay on SW-620 colon was over 100 µM throughout.
In the case of `CN1CCN(Cn2nc(-c3ccccc3)n(/N=C/c3ccc(-c4ccc(Cl)cc4Cl)o3)c2=S)CC1`, the TGI is 41.3 µM in the assay on KM12 colon; 26.2 µM with SF-268 CNS; 77.8 µM in the assay with SK-MEL-28 melanoma; 58.1 µM with A498 renal; 45.1 µM in the assay with T-47D breast; 56.2 µM with NCI/ADR-RES ovarian. Moreover, the TGI was 48 µM in the assay on OVCAR-5 ovarian; 53.2 µM in the assay on NCI-H226 lung; 26.5 µM in the assay on HCC-2998 colon; 33.9 µM in the assay with 786-0 renal; 36.3 µM with HT29 colon; 38.6 µM in the assay with MCF7 breast. Besides, the TGI in the assay on NCI-H23 lung stood at 40.7 µM; in the assay with OVCAR-4 ovarian, 54.8 µM; in the assay on RPMI-8226 leukemia, 75.6 µM; in the assay on SW-620 colon, 32.9 µM.
